Results as given in publication PMC6685790 (Nature structural & molecular biology, 2008).

Key:
Test in all cases: Whole-cell recording of substituted GlyR in HEK cells
Format in all cases: cell-based
GlyR α1^T113G = GlyR α1^T113G (Homo sapiens, UniProt P23415, T141G); conditions: α1^T113G vs WT
GlyR α1^L134A, D86A = GlyR α1^L134A, D86A (Homo sapiens, UniProt P23415, D114A/L162A)
GlyR α1^L134A, D84A = GlyR α1^L134A, D84A (Homo sapiens, UniProt P23415, D112A/L162A)
Sequence of GlyR α1^L134A, D84A (P23415 29-457 D112A/L162A): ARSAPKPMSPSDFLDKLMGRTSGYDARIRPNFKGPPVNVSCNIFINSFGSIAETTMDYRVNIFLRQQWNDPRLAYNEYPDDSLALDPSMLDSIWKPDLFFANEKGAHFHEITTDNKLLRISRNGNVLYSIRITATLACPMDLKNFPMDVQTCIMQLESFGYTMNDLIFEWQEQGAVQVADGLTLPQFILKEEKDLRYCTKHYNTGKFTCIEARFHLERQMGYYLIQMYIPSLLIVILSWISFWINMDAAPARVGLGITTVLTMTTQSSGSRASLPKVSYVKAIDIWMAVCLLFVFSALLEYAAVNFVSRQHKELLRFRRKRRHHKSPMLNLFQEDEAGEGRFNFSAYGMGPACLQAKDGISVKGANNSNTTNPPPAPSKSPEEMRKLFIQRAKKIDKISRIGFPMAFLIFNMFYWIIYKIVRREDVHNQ

Sequence of GlyR α1^L134A, D86A (P23415 29-457 D114A/L162A): as the sequence (P23415 29-457 D112A/L162A) above, with A84D, D86A counted along it
Sequence of GlyR α1^T113G (P23415 29-457 T141G): as the sequence (P23415 29-457 D112A/L162A) above, with A84D, T113G, A134L counted along it

Row | Increase in glycine sensitivity compared to WT (GlyR α1^T113G) | Zn^2+ activation (normalised to Gly Imax) (GlyR α1^L134A, D86A; D86A) | Increase of Zn^2+ activation EC50 relative to α1^L134A (GlyR α1^L134A, D86A; D86A vs α1^L134A) | Zn^2+ activation (normalised to Gly Imax) (GlyR α1^L134A, D84A; D84A) | Increase of Zn^2+ activation EC50 relative to α1^L134A (GlyR α1^L134A, D84A; D84A vs α1^L134A) | SMILES
1 | 3 fold | – | – | – | – | NCC(=O)O [Glycine, glycine]
2 | – | 2.4 ± 1.2% | 15 fold | 5 ± 1% | 120 fold | [Zn+2] [Zn^2+]
